Patent publication EP0326329B1, “Quinazoline derivatives useful as insecticides” (Dow AgroSciences LLC, priority 1988, dated 1989)
Where two headings read alike, the source gives them in different places.

Tests used:
Assay type in all cases: in vivo
[1] = tested on: Botrytis cinerea (gray mold); assay: Greenhouse Test 1, foliar spray fungicide screen (GRAY MOLD), host grape berries; settings: disease control rating, 400 ppm (+++ at 100 ppm)
[2] = tested on: Pyricularia oryzae (rice blast); settings: disease control rating, foliar spray, host rice; 400 ppm (+++ at 100 ppm)
[3] = tested on: Cercospora beticola (leaf spot); assay: Greenhouse Test 1, foliar spray fungicide screen (LEAF SPOT), host sugar beet; settings: disease control rating, 400 ppm (+++ at 100 ppm)
[4] = tested on: Venturia inaequalis (apple scab); assay: Greenhouse Test 1, foliar spray fungicide screen (APPL SCAB), host apple seedling; settings: disease control rating, 400 ppm (+++ at 100 ppm)
[5] = tested on: melon aphids (Aphis gossypii Glover); assay: Mite/insect screen, sprayed squash cotyledons (MA)
How it was run: (§1)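 Mortality and phytotoxicity read after standard exposure periods on sprayed squash: cotyledons for melon aphids and twospotted spider mites, excised leaves placed with southern armyworm larvae. Spray solutions were water dilutions of acetone/alcohol stocks containing TOXIMUL R and S emulsifiers, applied to runoff at 10 psi and air-dried one hour.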

[6] = tested on: Pseudocercosporella herpotrichoides; assay: Fungicide field tests; settings: crop: wheat
Source text: (§2) Selected compounds were field tested on various crops against a variety of pathogens. […]

Uncinula necator = assay: Fungicide field tests; settings: crop: grapes
Source text: as §2

[7] = tested on: Erysiphe graminis tritici; assay: Fungicide field tests; settings: crop: wheat
Source text: as §2

Erysiphe graminis hordei = assay: Fungicide field tests; settings: crop: barley
Source text: as §2

Plasmopara viticola = assay: Fungicide field tests; settings: crop: grape
Source text: as §2

Podosphaera leucotricha = assay: Fungicide field tests; settings: crop: apple
Source text: as §2

Alternaria brassicae = assay: Fungicide field tests; settings: crop: rape
Source text: as §2

Rhynchosporium secalis = assay: Fungicide field tests; settings: crop: barley
Source text: as §2

Pyrenophora teres = assay: Fungicide field tests; settings: crop: barley
Source text: as §2

Sphaerotheca fuliginea = assay: Fungicide field tests; settings: crop: cucumber
Source text: as §2

Septoria nodorum = assay: Fungicide field tests; settings: crop: wheat
Source text: as §2

[8] = tested on: Puccinia recondita tritici (leaf rust); assay: Greenhouse Test 1, foliar spray fungicide screen (LEAF RUST), host wheat; settings: disease control rating, 400 ppm (+++ at 100 ppm)
[9] = tested on: Erysiphe graminis tritici (powdery mildew); assay: Greenhouse Test 1, foliar spray fungicide screen (POWD MDEW), host wheat; settings: disease control rating, 400 ppm (+++ at 100 ppm)
[10] = tested on: Twospotted spider mites (Tetranychus urticae Koch); assay: Mite/insect screen, sprayed squash cotyledons (SM)
How it was run: as §1

[11] = tested on: Septoria tritici (leaf blotch); assay: Greenhouse Test 1, foliar spray fungicide screen (LEAF BLOT), host wheat; settings: disease control rating, 400 ppm (+++ at 100 ppm)
[12] = tested on: Southern corn rootworm (Diabrotica undecimpuctata howardi Barber); assay: Mite/insect screen, soil treatment (CRW)
How it was run: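 Five 2–3 instar larvae were placed on dry sandy soil with a presoaked corn seed after the soil had received 1 mL of compound solution and dried 6–12 h; cups were kept capped at 23°C. Mortality (%) and phytotoxicity were read after standard exposure. Formulation: acetone/alcohol with emulsifiers, water-diluted.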

[13] = tested on: Pseudoperonospora cubensis (downy mildew); assay: Greenhouse Test 1, foliar spray fungicide screen (DOWN MDEW), host squash; settings: disease control rating, 400 ppm (+++ at 100 ppm)
Erysiphe sp. = assay: Fungicide field tests; settings: crop: sugar beet
Source text: as §2

pea aphid = assay: Mite and insect field trials
Protocol: (§3) 4-[2-[4-(t-butyl)phenyl]ethoxy]quinazoline and 4-[2-(1,1'-biphenyl)-4 biphenyl)-4-ylethoxy]quinazoline were evaluated against a variety of mite and insect species in field trials.

greenhouse thrips = assay: Mite and insect field trials; settings: plant: azaleas
Protocol: as §3

bean aphid = assay: Mite and insect field trials; settings: plant: bean, faba broad
Protocol: as §3

potato aphid = assay: Mite and insect field trials; settings: plant: turnip
Protocol: as §3

Dawson-hop aphid = assay: Mite and insect field trials; settings: plant: hops
Protocol: as §3

twospotted spider mite = assay: Mite and insect field trials
Protocol: as §3

tarnished plant bug = assay: Mite and insect field trials; settings: plant: alfalfa (Lucerne)
Protocol: as §3

white apple leafhopper = assay: Mite and insect field trials; settings: plant: apples
Protocol: as §3

potato leafhopper = assay: Mite and insect field trials; settings: plant: alfalfa (Lucerne)
Protocol: as §3

green peach aphid = assay: Mite and insect field trials
Protocol: as §3

wheat aphid = assay: Mite and insect field trials; settings: plant: wheat
Protocol: as §3

rosy apple aphid = assay: Mite and insect field trials; settings: plant: apples
Protocol: as §3

citrus rust mite = assay: Mite and insect field trials; settings: tested on grapefruit
Protocol: as §3

cotton aphid = assay: Mite and insect field trials; settings: plant: cotton
Protocol: as §3

grape leafhopper = assay: Mite and insect field trials; settings: plant: grape (European)
Protocol: as §3

apple aphid = assay: Mite and insect field trials; settings: plant: apples
Protocol: as §3

grape thrips = assay: Mite and insect field trials; settings: plant: grape (European)
Protocol: as §3

thrips = assay: Mite and insect field trials; settings: plant: privet
Protocol: as §3

black citrus aphid = assay: Mite and insect field trials; settings: plant: lemon
Protocol: as §3

yellow hickory aphid = assay: Mite and insect field trials; settings: plant: pecan nut
Protocol: as §3

apple rust mite = assay: Mite and insect field trials; settings: plant: apples
Protocol: as §3

green cloverworm = assay: Mite and insect field trials; settings: plant: alfalfa (Lucerne)
Protocol: as §3

cereal aphid = assay: Mite and insect field trials; settings: plant: barley
Protocol: as §3

European red mite = assay: Mite and insect field trials; settings: plant: apples
Protocol: as §3

[14] = tested on: southern armyworm (Spodopetra eridania Cramer); assay: Mite/insect screen, sprayed squash leaves (SAW); settings: Spodoptera eridania, read-out: SAW RESULTS %
How it was run: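 Steps: formulate compound in acetone/alcohol 50:50 carrying emulsifiers; dilute with water; spray leaves until runoff on upper and lower surfaces; air-dry one hour; for armyworm, excise two […] leaves into a dish of larvae; after exposure, score mortality and plant injury.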

[15] = percent mortality, spray rate 200 ppm
[16] = Aphis gossypii, read-out: MA RESULTS %
[17] = Tetranychus urticae, read-out: SM RESULTS %
[18] = Diabrotica, soil, read-out: CRW RESULTS %

With c1ccc2cc(CCNc3ncnc4ccccc34)ccc2c1 [Example 53, N-[2-(2-naphthyl)ethyl]-4-quinazolinamine] the “GRAY MOLD” value [1] was “- (- = 0-19% control at 400 ppm)”, the “RICE BLAST” value [2] was “+++ (+++ = 90-100% control at 100 ppm)” and the “LEAF SPOT” value [3] was “- (- = 0-19% control at 400 ppm)”. The “APPL SCAB” value [4] was “+ (+ = 20-89% control at 400 ppm)”, the mortality at 200 ppm ([5]; Aphis gossypii, percent mortality, spray rate 200 ppm, read-out: MA RESULTS %) was 0% and the “MA RESULTS %” value [5, 15] was 0%. For the same compound, the “pathogen against which compound demonstrated activity in field tests” value (“pathogen” for short) [6] was “Pseudocercosporella herpotrichoides”, the “pathogen” value (Uncinula necator) was “Uncinula necator” and the “pathogen” value [7] was “Erysiphe graminis tritici”. The “pathogen” value (Erysiphe graminis hordei) was “Erysiphe graminis hordei”, the “pathogen” value (Plasmopara viticola) was “Plasmopara viticola” and the “pathogen” value (Podosphaera leucotricha) was “Podosphaera leucotricha”. The “pathogen” value (Alternaria brassicae) was “Alternaria brassicae”, the “pathogen” value (Rhynchosporium secalis) was “Rhynchosporium secalis” and the “pathogen” value (Pyrenophora teres) was “Pyrenophora teres”. The “pathogen” value (Sphaerotheca fuliginea) was “Sphaerotheca fuliginea”, the “pathogen” value (Septoria nodorum) was “Septoria nodorum” and the “LEAF RUST” value [8] was “+++ (+++ = 90-100% control at 100 ppm)”. For the same compound, the “POWD MDEW” value [9] was “+++ (+++ = 90-100% control at 100 ppm)”, the mortality at 200 ppm ([10]; Tetranychus urticae, percent mortality, spray rate 200 ppm, read-out: SM RESULTS %) was 0% and the “SM RESULTS %” value [10, 15] was 0%. For the same compound, the “LEAF BLOT” value [11] was “+++ (+++ = 90-100% control at 100 ppm)”, the mortality at 12 ppm ([12]; Diabrotica, percent mortality, soil treatment, CRW rate 12.00 ppm, read-out: CRW RESULTS %) was 0% and the “CRW RESULTS %” value ([12]; percent mortality, soil treatment, CRW rate 12.00 ppm) was 0%. The “DOWN MDEW” value [13] was “+++ (+++ = 90-100% control at 100 ppm)”.
With CC(C)(C)c1ccc(CCOc2ncnc3ccccc23)cc1 [Example 2, 4-[2-[4-(t-butyl)phenyl]ethoxy]quinazoline] the “GRAY MOLD” value [1] was “- (- = 0-19% control at 400 ppm)”, the “RICE BLAST” value [2] was “+++ (+++ = 90-100% control at 100 ppm)” and the “LEAF SPOT” value [3] was “++ (++ = 90-100% control at 400 ppm)”. For the same compound, the “APPL SCAB” value [4] was “+ (+ = 20-89% control at 400 ppm)”, the mortality at 200 ppm [5, 16] was 90% and the mortality at 400 ppm [5, 16] was 80%. The “pathogen” value (Erysiphe sp.) was “Erysiphe sp”, the “pathogen” value [6] was “Pseudocercosporella herpotrichoides” and the “pathogen” value [7] was “Erysiphe graminis tritici”. The “pathogen” value (Erysiphe graminis hordei) was “Erysiphe graminis hordei”, the “pathogen” value (Plasmopara viticola) was “Plasmopara viticola” and the “pathogen” value (Rhynchosporium secalis) was “Rhynchosporium secalis”. For the same compound, the “pathogen” value (Pyrenophora teres) was “Pyrenophora teres”, the “pathogen” value (Sphaerotheca fuliginea) was “Sphaerotheca fuliginea” and the “mite or insect species against which they showed activity in field trials” value (“mite or insect species” for short) (pea aphid; plant: alfalfa (Lucerne)) was “pea aphid”. For the same compound, the “mite or insect species” value (pea aphid; plant: pea, garden (English)) was “pea aphid”, the “mite or insect species” value (greenhouse thrips) was “greenhouse thrips” and the “mite or insect species” value (bean aphid) was “bean aphid”. The “mite or insect species” value (potato aphid) was “potato aphid”, the “mite or insect species” value (Dawson-hop aphid) was “Dawson-hop aphid” and the “mite or insect species” value (twospotted spider mite; plant: azaleas) was “twospotted spider mite”. For the same compound, the “mite or insect species” value (twospotted spider mite; plant: broccoli) was “twospotted spider mite”, the “mite or insect species” value (twospotted spider mite; plant: plum (Japanese)) was “twospotted spider mite” and the “mite or insect species” value (tarnished plant bug) was “tarnished plant bug”. For the same compound, the “mite or insect species” value (white apple leafhopper) was “white apple leafhopper”, the “mite or insect species” value (potato leafhopper) was “potato leafhopper” and the “mite or insect species” value (green peach aphid; plant: apples) was “green peach aphid”. The “mite or insect species” value (green peach aphid; plant: sugar beet) was “green peach aphid”, the “mite or insect species” value (wheat aphid) was “wheat aphid” and the “mite or insect species” value (rosy apple aphid) was “rosy apple aphid”. The “activity against citrus rust mite in field trials” value (citrus rust mite) was “showing activity”, the “mite or insect species” value (cotton aphid) was “cotton aphid” and the “mite or insect species” value (grape leafhopper) was “grape leafhopper”. The “mite or insect species” value (apple aphid) was “apple aphid”, the “mite or insect species” value (grape thrips) was “grape thrips” and the “mite or insect species” value (thrips) was “thrips”. The “mite or insect species” value (black citrus aphid) was “black citrus aphid”, the “mite or insect species” value (yellow hickory aphid) was “yellow hickory aphid” and the “mite or insect species” value (apple rust mite) was “apple rust mite”. The “mite or insect species” value (green cloverworm) was “green cloverworm”, the “mite or insect species” value (cereal aphid) was “cereal aphid” and the “mite or insect species” value (European red mite) was “European red mite”. For the same compound, the mortality at 200 ppm [14] was 0%, the mortality at 400 ppm [14] was 20% and the “LEAF RUST” value [8] was “+++ (+++ = 90-100% control at 100 ppm)”. The “POWD MDEW” value [9] was “++ (++ = 90-100% control at 400 ppm)”, the mortality at 200 ppm [10, 17] was 100% and the mortality at 400 ppm [10, 17] was 90%. For the same compound, the “LEAF BLOT” value [11] was “+ (+ = 20-89% control at 400 ppm)”, the mortality at 12 ppm [12, 18] was 0% and the mortality at 24 ppm [12, 18] was 0%. For the same compound, the “DOWN MDEW” value [13] was “+++ (+++ = 90-100% control at 100 ppm)”.
